Assay results: PubChem BioAssay AID248 (DTP/NCI, 2004)
Inconclusive results and toxic doses are left out. Cut-off read from the data, not from the text of the source: active = T/C of 150% or more; inactive = T/C below 125%.

System: L1210 leukemia ip in BDF1 mice, survival T/C
Assay: NCI In Vivo Anticancer Drug Screen. Data for tumor model L1210 Leukemia (intraperitoneal) in B6D2F1 (BDF1) mice
Conditions: endpoint: mean survival time, higher = longer survival
Outline: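 Each compound was tested against a transplantable tumor grown in mice. The endpoint was survival, with treated animals benchmarked against vehicle controls as a simple ratio.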

[1] = dose: 100.0 mg/kg/injection, schedule: Q04DX003 (ip), vehicle: saline with Tween-80
[2] = dose: 200.0 mg/kg/injection, schedule: Q04DX003 (ip), vehicle: saline with Tween-80
[3] = dose: 400.0 mg/kg/injection, schedule: Q04DX003 (ip), vehicle: saline with Tween-80
[4] = dose: 100.0 mg/kg/injection, schedule: Q04DX003 (ip), vehicle: Klucel (hydroxypropylcellulose) (HPC)
[5] = dose: 200.0 mg/kg/injection, schedule: Q04DX003 (ip), vehicle: Klucel (hydroxypropylcellulose) (HPC)
[6] = dose: 400.0 mg/kg/injection, schedule: Q04DX003 (ip), vehicle: Klucel (hydroxypropylcellulose) (HPC)

Measured: T/C

CC(=O)Nc1ccc(-n2cnc3c(Cl)ncnc32)cc1C
inactive: dose: 100.0 mg/kg/injection, schedule: Q01DX001 (ip), vehicle: carboxymethylcellulose (CMC) 87 % of control | dose: 200.0 mg/kg/injection, schedule: Q01DX001 (ip), vehicle: carboxymethylcellulose (CMC) 91 % of control | dose: 400.0 mg/kg/injection, schedule: Q01DX001 (ip), vehicle: carboxymethylcellulose (CMC) 91 % of control

Cc1ccc(S(=O)(=O)NN)cc1
inactive: [1] 97 % of control | [2] 101 % of control | [3] 88 % of control

CN(CCCl)C(=O)Nc1ccc(Cl)cc1
inactive: [4] 94 % of control | [5] 94 % of control | [6] 90 % of control

Cn1cnc2nc(Cl)[nH]c(=O)c21
inactive: [4] 100 % of control | [5] 97 % of control | [6] 95 % of control

O=C(CBr)c1ccc(-c2ccccc2)cc1
inactive: dose: 6.0 mg/kg/injection, schedule: Q01DX009 (ip), vehicle: Klucel (hydroxypropylcellulose) (HPC) 100 % of control | dose: 12.0 mg/kg/injection, schedule: Q01DX009 (ip), vehicle: Klucel (hydroxypropylcellulose) (HPC) 96 % of control | dose: 25.0 mg/kg/injection, schedule: Q01DX009 (ip), vehicle: Klucel (hydroxypropylcellulose) (HPC) 98 % of control | [4] 98 % of control | [5] 102 % of control

CCN(Cc1cc(OC)c(OC)c(OC)c1)C1CCCCC1
inactive: dose: 50.0 mg/kg/injection, schedule: Q01DX009 (ip), vehicle: saline 113 % of control | dose: 100.0 mg/kg/injection, schedule: Q01DX009 (ip), vehicle: saline 98 % of control

O=C1Cc2cccc3cccc1c23
inactive: [1] 102 % of control | [2] 106 % of control | [3] 104 % of control

O=C(CCCC(=O)NNC(=S)Nc1ccc2ccccc2c1)NNC(=S)Nc1ccc2ccccc2c1
inactive: dose: 50.0 mg/kg/injection, schedule: Q01DX001 (ip), vehicle: saline 98 % of control | dose: 100.0 mg/kg/injection, schedule: Q01DX001 (ip), vehicle: saline 93 % of control | dose: 200.0 mg/kg/injection, schedule: Q01DX001 (ip), vehicle: saline 93 % of control | dose: 400.0 mg/kg/injection, schedule: Q01DX001 (ip), vehicle: saline 90 % of control
